pEC50: −log10 of the molar value.

In this experiment the target is T1, glucokinase (GK), human enzyme (Homo sapiens, UniProt P35557).
T1 sequence (P35557 1-465): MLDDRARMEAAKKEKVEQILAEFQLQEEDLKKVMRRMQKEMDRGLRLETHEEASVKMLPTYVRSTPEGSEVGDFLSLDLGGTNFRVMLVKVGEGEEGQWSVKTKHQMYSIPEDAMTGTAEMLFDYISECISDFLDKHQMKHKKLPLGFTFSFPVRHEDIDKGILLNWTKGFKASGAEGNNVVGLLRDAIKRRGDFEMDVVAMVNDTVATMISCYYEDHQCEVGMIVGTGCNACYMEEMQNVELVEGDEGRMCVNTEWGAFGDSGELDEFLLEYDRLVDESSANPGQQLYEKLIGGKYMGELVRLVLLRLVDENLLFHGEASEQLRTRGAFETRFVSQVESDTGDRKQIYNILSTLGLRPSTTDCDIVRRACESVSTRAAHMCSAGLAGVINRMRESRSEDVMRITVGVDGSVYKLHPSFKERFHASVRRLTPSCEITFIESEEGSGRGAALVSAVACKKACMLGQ
The experiment in a line: Glucokinase Activation Assay (coupled enzyme assay with PK/LDH, NADH decline at 340 nm). Format: biochemical. As to conditions: 2 mM glucose, half maximal effective concentration of activation. The procedure: Glucokinase Activation Screening Assay
GK activity (human or rat enzyme) is measured by a coupled enzyme assay using pyruvate kinase (PK) and lactate dehydrogenase (LDH) as coupling enzymes. GK activity is calculated from the decline in NADH monitored photometrically with a microtiter plate (MTP) reader at 340 nm.
For screening purposes, the GK assay is routinely run in a 384-MTP format, in a total volume of 33 μl/well. 10 μl of the ATP-regeneration solution (in HEPES-buffer*, pH 7.0, 6.73 U/ml pyruvate kinase, 6.8 U/ml lactate dehydrogenase) and 10 μl of the glucokinase-/glucose solution (15 μg/ml, 6.6 mM glucose in HEPES-buffer*, pH 7.0; the concentration of the glucose stock-solution was 660 mM in Millipore H2O) were mixed together with 3 μl of a 10% DMSO solution (in HEPES-buffer*, pH 7.0) containing […] the amounts of the compounds to achieve final compound concentrations in the range between 1 nM to 30 μM (sometimes 300 μM) in the assay solution (s. below). The solutions were mixed for 5 sec, and after a centrifugation at 243×g for 5 min, the solutions were preincubated for 25 min at room temperature. The reaction was started by the addition of 10 μl of the NADH-/ATP-solution (4.29 mM NADH, 4.95 mM ATP, in HEPES-buffer*). The MTP was shaken for 5 sec., and then, the absorbance at 340 nm was monitored continuously in a MTP-reader (TECAN Spectro fluor plus) for the next 27 min (with a MTP-cycling time of 199 sec.). The final concentrations of the various components were as follows: 49.5 mM Hepes, pH 7.0, 1.49 mM PEP, 1.3 mM NADH, 49.5 mM KCl, 4.96 mM MgCl2, 1.5 mM Mg-ATP, 1.98 mM DTT, 2.04 U/ml pyruvate kinase, 2.06 U/ml lactate-dehydrogenase, 0.91% DMSO, 0.15 μg/well glucokinase, and test compounds in the range between 1 nM and 300 μM, The change in the optical density (ΔOD340 nm) in the presence of the compound was expressed relative to the ΔOD340 nm, ctrl of the control incubation (in the presence of 2 mM glucose and 0.91% DMSO), taking into account the optical density of the blank sample (incubation in the absence of 2 mM glucose). For the determination of the half maximal effective concentration (EC50), the %-Ctrl-values were plotted in a semi-logarithmic graph against the cone. of the compound of interest. The data points were fitted to a sigmoid curve function (f(x)=((%-Ctrlmax−%-Ctrlmin)/(1−(EC50/x**^n(Hill)))+%-Ctrlmin)) by a non-linear regression analysis. • Hepes-buffer (50 mM Hepes, pH 7.0, 5 mM MgCl2, 50 mM KCl, 1.5 mM PEP, 0.1% BSA). DTT was added to the Hepes-buffer from a 200× stock solution (in Millipore H2O) freshly each day. The final concentration of DTT in the Hepes-buffer is 2 mM. Culture of Pancreatic INS-1 Cells
In general, pEC50 refers to −log10 of the EC50, conventionally taken in molar units. A low value points to a large EC50. With `COc1cc(C(CC(=O)Nc2ccc(C)cn2)N2Cc3ccccc3C2=O)cc(OC)c1OC` (stereo not drawn) [B7, N-(5-Methyl-pyridine-2-yl)-3-(1-oxo-1,3-dihydro-isoindole-2-yl)-3-(3,4,5-trimethoxy-phenyl)-propionamide], the pEC50 is 5.00 to 6.00. For `COc1cc(C(CC(=O)Nc2ccc(Cl)cn2)N2Cc3ccccc3C2=O)cc(OC)c1OC` (single isomer, unassigned; (+)) [C1, (+)-N-(5-Chloro-pyridine-2-yl)-3-(1-oxo-1,3-dihydro-isoindole-2-yl)-3-(3,4,5-trimethoxy-phenyl)-propionamide], the pEC50 is 5.00 to 6.00. In the case of `CCOc1ccc(C(CC(=O)Nc2ccc(Cl)cn2)N2Cc3ccccc3C2=O)cc1OC` (stereo not drawn) [C23, N-(5-Chloro-pyridine-2-yl)-3-(4-ethoxy-3-methoxy-phenyl)-3-(1-oxo-1,3-dihydro-isoindole-2-yl)-propionamide], the pEC50 is < 5.00.

`COc1cccc(C(CC(=O)Nc2ccc(Cl)cn2)N2Cc3ccccc3C2=O)c1OC` (stereo not drawn) [C3, N-(5-Chloro-pyridine-5-yl)-3-(2,3-dimethoxy-phenyl)-3-(1-oxo-1,3-dihydro-isoindole-2-yl)-propionamide]: the negative-log EC50 (pEC50) is < 5.00. As for `CCOc1ccc(C(CC(=O)Nc2ccc(Cl)cn2)N2Cc3ccccc3C2=O)cc1OC` (single isomer, unassigned; (-)) [C5, (−)-N-(5-Chloro-pyridine-2-yl)-3-(4-ethoxy-3-methoxy-phenyl)-3-(1-oxo-1,3-dihydro-isoindole-2-yl)-propionamide], the negative logarithm of the EC50 (pEC50) was < 5.00.

On to `COc1ccc(C(CC(=O)Nc2ccc(Cl)cn2)N2Cc3ccccc3C2=O)cc1OC` (stereo not drawn) [B6, N-(5-Chloro-pyridine-2-yl)-3-(3,4-dimethoxy-phenyl)-3-(1-oxo-1,3-dihydro-isoindole-2-yl)-propionamide], for which the pEC50 is < 5.00. Molecule `COc1cc(C(CC(=O)Nc2ccc(Cl)cn2)N2Cc3ccccc3C2=O)cc(OC)c1OC` (stereo not drawn) [B2, N-(5-Chloro-pyridine-2-yl)-3-(1-oxo-1,3-dihydro-isoindole-2-yl)-3-(3,4,5-trimethoxy-phenyl)-propionamide] showed a pEC50 of 5.00 to 6.00.

On to `COc1ccc(C(CC(=O)Nc2ccc(Br)cn2)N2Cc3ccccc3C2=O)cc1OC` (stereo not drawn) [B5, N-(5-Bromo-pyridine-2-yl)-3-(3,4-dimethoxy-phenyl)-3-(1-oxo-1,3-dihydro-isoindole-2-yl)-propionamide], for which the pEC50 is < 5.00. In the case of `CCOc1ccc(C(CC(=O)Nc2ccc(Cl)cn2)N2Cc3ccccc3C2=O)cc1OC` (single isomer, unassigned; (+)) [C4, (+)-N-(5-Chloro-pyridine-2-yl)-3-(4-ethoxy-3-methoxy-phenyl)-3-(1-oxo-1,3-dihydro-isoindole-2-yl)-propionamide], the pEC50 was < 5.00.

The record behind these values is patent US8431602B2, “Beta-amino acid derivatives for treatment of diabetes” (Merck Patent Gesellschaft mit beschrankter Haftung, priority 2008, dated 2013).
